± gives the expanded uncertainty stated by the source.
Conditions: Crystal; visual observation

**Q.** For `CC1(C)COP(=O)(C(Nc2ccccc2)c2ccccc2)OC1` (stereo unspecified), which Normal melting temperature is on record?
**A.** Its Normal melting temperature is 175 ± 2 °C.
